US20230099344A1, “COMPOUNDS AND METHODS FOR THE TARGETED DEGRADATION OF IRAK-4” (Arvinas Operations, Inc., priority 2021, published 2023)

Key:
Assay type in all cases: cell-based
IL6 [1] = assay: LPS stimulated IL6 inhibition assay in PBMC; settings: Homo sapiens, PBMC, 24 h, human PBMCs, LPS stimulation, compound overnight, IL6 by MSD after 24 hrs; for Dmax: read-out: LPS Stim IL6 inhibition Dmax; for IC50: read-out: LPS stim IL6 inhibition IC50
Method in brief: (§1)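 Read-out: MSD quantification of IL6 or IL8 in media collected 24 hrs after stimulation. Human PBMCs (2.0×10^6 cells/mL) received compound overnight before stimulant dosing at an EC50 concentration determined per donor.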

IL6 [2] = assay: R848 stimulated IL6 inhibition assay in PBMC; settings: PBMC, human PBMCs, R848 stimulation, compound overnight, IL6 by MSD after 24 hrs; for Dmax: Homo sapiens, 24 h, read-out: R848 stim IL6 inhibition Dmax; for IC50: read-out: R848 stim IL6 inhibition IC50
Method in brief: as §1

IRAK-4 [3] = target: T1, IRAK-4 (Homo sapiens, UniProt Q9NWZ3); assay: IRAK-4 ELISA, OCI-Ly10 degradation; design: endogenous in cells; settings: treated overnight; for Dmax: OCI-Ly10, OCI-Ly10 cells; for DC50: OCI-Ly10 cells
T1 sequence (Q9NWZ3 1-460): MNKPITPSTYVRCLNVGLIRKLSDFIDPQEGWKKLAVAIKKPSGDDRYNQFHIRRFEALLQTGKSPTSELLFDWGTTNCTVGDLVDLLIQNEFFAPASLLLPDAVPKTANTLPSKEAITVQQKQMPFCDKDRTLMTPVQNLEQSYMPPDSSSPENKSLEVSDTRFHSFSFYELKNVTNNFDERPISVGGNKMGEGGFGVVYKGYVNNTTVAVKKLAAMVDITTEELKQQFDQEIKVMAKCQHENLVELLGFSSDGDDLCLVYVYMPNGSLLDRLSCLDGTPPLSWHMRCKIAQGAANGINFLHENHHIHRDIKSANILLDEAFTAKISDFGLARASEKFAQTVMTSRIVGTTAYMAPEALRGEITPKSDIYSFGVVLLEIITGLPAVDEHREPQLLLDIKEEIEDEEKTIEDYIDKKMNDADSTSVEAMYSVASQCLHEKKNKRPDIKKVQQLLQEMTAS
Procedure: Reagents: Human IRAK-4 Matched Antibody Pair Kit (Abcam ab218182) and ELISA Accessory Pack (Abcam ab210905).
Cell Treatment and Lysis:
1. OCI-Ly10: 200,000 cells are seeded at 1×10^6/ml in 96-well U-bottom plates 200 ul per well, treated with compound the same day. Incubate overnight. 2. PBMC: 800,000 cells are seeded at 2×10^6/ml in 96-well U-bottom deep-well plates, 400 ul per well, treated with compound the same day. Incubate overnight.
Cell lysate is collected and analyzed by ELISA for IRAK-4 levels.

IRAK-4 [4] = target: T1, IRAK-4; assay: IRAK-4 ELISA, PBMC degradation; design: endogenous in cells; host or cells: PBMC; settings: treated overnight
Method in brief: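 Readout: IRAK-4 protein level in cell lysate, sandwich ELISA. Cells: OCI-Ly10 at 1×10^6/ml or PBMC at 2×10^6/ml, compound added same day, overnight incubation.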

Row | Structure (SMILES) | IC50 (IL6 [1]) | IC50 (IL6 [2]) | Dmax (IRAK-4 [3]) | DC50 (IRAK-4 [3]) | DC50 (IRAK-4 [4]) | Dmax (IRAK-4 [4]) | PBMC DC90 (IRAK-4 [4]) | Dmax (IL6 [1]) | Dmax (IL6 [2])
1 | CC(C)Oc1cc2c(cc1NC(=O)c1cnn3cccnc13)CN(C1CCN(CC3(F)CN(c4ccc5c(c4)C(=O)N(C4CCC(=O)NC4=O)C5=O)C3)CC1)C2=O (stereo not drawn) [Example 57, N-(2-(1-((1-(2-(2,6-dioxopiperidin-3-yl)-1,3-dioxoisoindolin-5-yl)-3-fluoroazetidin-3-yl)methyl)piperidin-4-yl)-6-isopropoxy-1-oxoisoindolin-5-yl)pyrazolo[1,5-a]pyrimidine-3-carboxamide] | 0.01 to 0.05 µM | 0.05 to 0.1 µM | ≥ 90% | 0.01 to 0.05 µM | < 0.001 µM | ≥ 90% | A (A represents a DC90 value <10.0 nM) | 70 to 80% | ≥ 90%
2 | CC(C)Oc1cc2c(cc1NC(=O)c1cnn3cccnc13)CN(C1CCN(CC3(F)CCN(c4ccc5c(c4)C(=O)N(C4CCC(=O)NC4=O)C5=O)CC3)CC1)C2=O (stereo not drawn) [Example 58] | – | – | ≥ 90% | 0.01 to 0.05 µM | 0.001 to 0.005 µM | ≥ 90% | B (B represents a DC90 value ≥10.0 nM and <25.0 nM) | – | –
3 | CC(C)(C1CCN(c2ccc3c(c2)C(=O)N(C2CCC(=O)NC2=O)C3=O)CC1)N1CCC(N2Cc3cc(NC(=O)c4cnn5cccnc45)c(OCC4CC4)cc3C2=O)CC1 (stereo not drawn) [Example 87] | – | – | ≥ 90% | 0.05 to 0.1 µM | 0.005 to 0.01 µM | 80 to 90% | D (D represents a DC90 value ≥50 nM) | – | –
4 | O=C1CCC(N2C(=O)c3ccc(N4CCC(F)(CN5CCC(N6Cc7cc(NC(=O)c8cnn9cccnc89)c(OCC8CC8)cc7C6=O)CC5)CC4)cc3C2=O)C(=O)N1 (stereo not drawn) [Example 88] | 0.01 to 0.05 µM | – | 80 to 90% | 0.05 to 0.1 µM | < 0.001 µM | ≥ 90% | A (A represents a DC90 value <10.0 nM) | 70 to 80% | –
5 | CC(C)Oc1cc2c(cc1NC(=O)c1cnn3cccnc13)CN([C@H]1CCN(CC3CCN(c4ccc5c(c4)C(=O)N(C4CCC(=O)NC4=O)C5=O)CC3)C[C@@H]1F)C2=O (stereo partly drawn) [Example 91] | – | – | ≥ 90% | 0.01 to 0.05 µM | 0.001 to 0.005 µM | ≥ 90% | B (B represents a DC90 value ≥10.0 nM and <25.0 nM) | – | –
6 | O=C1CCC(N2C(=O)c3ccc(N4CCN(CCN5CCC([C@H](F)CN6Cc7cc(NC(=O)c8cnn9cccnc89)c(N8CCOCC8)cc7C6=O)CC5)CC4)cc3C2=O)C(=O)N1 (stereo partly drawn) [Example 93] | – | – | ≥ 90% | 0.01 to 0.05 µM | < 0.001 µM | ≥ 90% | A (A represents a DC90 value <10.0 nM) | – | –
7 | O=C1CCC(N2C(=O)c3ccc(N4CCC(CN5CC[C@H](N6Cc7cc(NC(=O)c8cnn9cccnc89)c(N8CCOCC8)cc7C6=O)[C@@H](F)C5)CC4)cc3C2=O)C(=O)N1 (stereo partly drawn) [Example 94] | – | – | 70 to 80% | 0.01 to 0.05 µM | 0.001 to 0.005 µM | ≥ 90% | A (A represents a DC90 value <10.0 nM) | – | –
8 | O=C1CCC(N2C(=O)c3ccc(N4CC(CN5CCC(N6Cc7cc(NC(=O)c8cnn9cccnc89)c(N8CCC(N9CCC9)CC8)cc7C6=O)CC5)C4)cc3C2=O)C(=O)N1 (stereo not drawn) [Example 98] | – | – | ≥ 90% | 0.01 to 0.05 µM | 0.005 to 0.01 µM | 70 to 80% | D (D represents a DC90 value ≥50 nM) | – | –
9 | O=C1CCC(N2C(=O)c3ccc(N4CCC(F)(CN5CCC(n6cc7cc(NC(=O)c8cnn9cccnc89)c(OCC8CC8)cc7n6)CC5)CC4)cc3C2=O)C(=O)N1 (stereo not drawn) [Example 166] | – | – | ≥ 90% | 0.01 to 0.05 µM | 0.005 to 0.01 µM | ≥ 90% | C (C represents a DC90 value ≥25.0 nM and <50 nM) | – | –

More lines, main results first:

Row | IC50 (IL6 [1]) | IC50 (IL6 [2]) | Dmax (IRAK-4 [3]) | DC50 (IRAK-4 [3]) | DC50 (IRAK-4 [4]) | Dmax (IRAK-4 [4]) | PBMC DC90 (IRAK-4 [4]) | Structure (SMILES) | Dmax (IL6 [1]) | Dmax (IL6 [2])
10 | 0.01 to 0.05 µM | 0.01 to 0.05 µM | ≥ 90% | 0.01 to 0.05 µM | – | – | – | O=C1CCC(N2C(=O)c3ccc(N4CCC(CN5CCC(n6cc7cc(NC(=O)c8cnn9cc(Cl)cnc89)c(OCC8CC8)cc7n6)CC5)CC4)cc3C2=O)C(=O)N1 (stereo not drawn) [Example 128] | 70 to 80% | 80 to 90%
11 | – | – | – | ≥ 0.1 µM | – | – | – | COc1cc2nn([C@H]3CC[C@@H](OC4CN(c5ccc6c(c5)C(=O)N(C5CCC(=O)NC5=O)C6=O)C4)CC3)cc2cc1NC(=O)c1cnn2cccnc12 (stereo partly drawn) [Example 211] | – | –
12 | – | – | < 70% | ≥ 0.1 µM | – | – | – | COc1cc2nn(C[C@@H](F)COCC3CCN(c4ccc5c(c4)C(=O)N(C4CCC(=O)NC4=O)C5=O)CC3)cc2cc1NC(=O)c1cnn2cccnc12 (stereo partly drawn) [Example 213] | – | –
